Test results: patent US20070244077A1, “COMPOSITION AND METHOD OF TREATING PERIPHERAL NEUROPATHY” (priority 2006, published 2007)

What was measured:
Type in all cases: in vivo, rat
[1] = tested on: streptozotocin-induced diabetic rats; experiment: Tactile allodynia, 50% withdrawal force to von Frey filaments in experimentally diabetic rats; details: for prevention of tactile allodynia (result in words): 3 months of treatment, diabetic rats, FIG. 2, aspirin 0.3 mg/kg, VIT E 4 g/kg diet, AMG 3 g/kg diet, PJ-34 20 mg/kg daily in drinking water; for animals in which development of tactile allodynia was prevented: SFZ 150 mg/kg BW daily in drinking water, vs non-treated diabetic group
Excerpt: Streptozotocin-induced diabetic rats (6-8 animals per group) were either left untreated or subjected to treatment with SFZ for up to 9 months. The presence of tactile allodynia was investigated at different time-points. […] Diabetic rats were either left untreated or subjected to treatment with either SFZ, the PARP inhibitor PJ-34, vitamin E (Vit E), or aminoguanidine (AMG) for 3 months. […] Experimentally diabetic rats display tactile allodynia (i.e., the perception of non-painful stimuli as painful), as evidenced by a significant decrease in the 50% withdrawal force (force at which there is a 50% probability of withdrawal) to von Frey filaments (FIGS. 1 and 2). The tactile allodynia was evident as early as 1 month after induction of diabetes and persisted throughout the experimental period (FIG. 1). Importantly, when compared to the non-treated diabetic group, administration of SFZ (150 mg/kg BW, daily, added to drinking water) prevented the development of tactile allodynia in either 50% or 80-100% of the animals after one or three months of treatment, respectively. We compared the effect of SFZ treatment on tactile allodynia in experimentally diabetic rats with those elicited by other salicylates (i.e. aspirin, 0.3 mg/kg), by the anti-oxidants Vitamin E (VIT E; 4 g/kg diet) and by aminoguanidine (AMG; 3 g/kg diet) and by the poly-ADP ribose-polymerase (PARP) inhibitor PJ-34 (20 mg/kg, daily, added to drinking water).

[2] = tested on: streptozotocin-induced diabetic rats; experiment: Mechanical hyperalgesia, Randall and Selitto test in streptozotocin-induced diabetic rats; details: results not shown
Excerpt: Experimentally diabetic rats display nociceptive alterations in addition to tactile allodynia.

p65 NFkB = experiment: Western blot of p65 NFkB expression in sciatic nerves of diabetic rats; details: 3-month SFZ-treated diabetic rats, immunoblot, FIG. 3
Excerpt: FIG. 3 is a Western blot analysis of p65 NFkB and CREB expression in sciatic nerves from individual normal (N), 3-month diabetic (D) and 3-month SFZ-treated diabetic (S) rats. Nerve proteins were subjected to SDS-PAGE and immunoblotting with antisera against p65 NFkB (left panel) or total (CREB) and phosphorylated CREB (p-CREB) (right panel). The ratio between the levels of pCREB and total CREB, in arbitrary units, is shown at the bottom of the respective lanes (numbers underneath the lanes). Blots were also probed using anti-ERK2 to control for protein loading. We carried out preliminary studies to determine the ability of commercial antibodies to detect the p65 subunit of NFkB, phospho-CREB (p-CREB) and CREB in sciatic nerve extracts (FIG. 3), as well as the possible changes in the expression of these transcription factors during experimental diabetes. The signal detected in the immunoblots is likely to reflect the presence of these transcription factors in Schwann cells, fibroblasts and/or endothelial cells. […] We are currently performing electrophoretic mobility shift assays (EMSA) to determine whether the increased immunoreactivity of p65 NFkB in diabetic nerves is paralleled by an increase in NFkB activity. At the same time, we observed a modest decrease in the levels of p-CREB relative to total CREB in diabetic nerves (FIG. 3, right panel). […]

NO = NO levels (nitrate+nitrite, fluorometric assay kit) in sciatic nerve extracts of diabetic rats; details: sciatic nerves; SFZ 200 mg/Kg BW daily for 9 months; mean ± SD of 3 animals
Description: (§1) NO levels were assayed in extracts from sciatic nerves (epineurium-free) by measuring the stable metabolites of NO (nitrate+nitrite) using a fluorometric assay kit. At the same time, the levels of PGE2 were evaluated by ELISA using a commercial kit (Cayman Chemical). In parallel samples, we also performed an immunoblot analysis to investigate possible changes in the expression of COX-2, one of the enzymes that convert arachidonic acid into PGE2.

PGE2 = PGE2 levels by ELISA in sciatic nerve extracts of diabetic rats; details: sciatic nerves; SFZ 200 mg/Kg BW daily for 9 months; mean ± SD of 3 animals
Description: as §1

COX-2 = experiment: Immunoblot of COX-2 expression in sciatic nerve extracts of diabetic rats; details: normal vs diabetic vs SFZ-treated diabetic animals, FIG. 5
Description: as §1

adenosine derivatives = experiment: Reverse-phase HPLC of adenosine derivatives (inosine, AMP) in sciatic nerve extracts of diabetic rats; details: total sciatic nerves; SFZ 200 mg/Kg BW daily for 9 months; mean ± SEM of 4 animals
Excerpt: Administration of either adenosine or of adenosine kinase or adenosine deaminase inhibitors appears to increase nociception thresholds. Two studies have reported that acute administration of either adenosine or adenosine kinase inhibitors can prevent some nerve abnormalities in experimental diabetes. […] However, no studies have investigated the eventual changes in levels of adenosine (or its metabolites) in diabetic nerves. […] Given these precedents, and to determine whether the beneficial effects of SFZ might be mediated through changes in adenosine levels, we measured the levels of this nucleoside in sciatic nerve extracts. Separation of adenosine derivatives was performed by reverse-phase HPLC in […]. This method allows proper separation of ATP, ADP, AMP, adenosine and inosine standards (FIG. 6). Under our experimental conditions we didn't detect an adenosine peak in the sciatic nerve extracts, but we typically observed small peaks corresponding to ATP and ADP and two relatively large peaks corresponding to AMP and inosine (a metabolite obtained by deamination of adenosine) (FIG. 7). The lack of an adenosine peak following fractionation of the sciatic nerve extracts is consistent with metabolism to AMP and/or with the presence of significant adenosine deaminase activity in these samples (and complete degradation to inosine and other breakdown products). […] The analysis of the elution profiles corresponding to sciatic nerve extracts prepared from normal, diabetic and SFZ-treated diabetic rats is summarized in Table 3. We observed that the SFZ-treated diabetic rats display an increase of inosine and a decrease in AMP levels. The design of these experiments could be improved to include the derivatization of samples (and increase the resolution of the ATP and ADP peaks) and/or dual analysis of samples to improve separation of overlapping components.

## N=C(N)NN [AMG, aminoguanidine]
[1]
  prevention of tactile allodynia (result in words): partial prevention of tactile allodynia

## O=C(O)c1cc(/N=N/c2ccc(S(=O)(=O)Nc3ccccn3)cc2)ccc1O [SFZ, 5([p(2-pyridylsulfamoyl)phenyl]azo)salicylic acid]
[1]
  prevention of tactile allodynia (result in words): completely prevents the development of tactile allodynia
[1]; after one month of treatment
  animals in which development of tactile allodynia was prevented: 50%
[1]; after three months of treatment
  animals in which development of tactile allodynia was prevented: 80-100%
[1]; treatment for up to 9 months, different time-points, FIG. 1
  prevention of tactile allodynia over time (result in words): prevents the development of tactile allodynia
[2]
  effect on mechanical withdrawal thresholds (mechanical hyperalgesia): modest amelioration of the mechanical thresholds that was not statistically significant
p65 NFkB
  diabetes-induced increase in expression of p65 NFkB in sciatic nerves: can be prevented by SFZ treatment
NO
  NO: 3.08 ± 0.25 nmoles/mg protein
PGE2
  PGE2: 366 ± 220 pmoles/mg protein
COX-2
  expression of COX-2 in sciatic nerve: did not observe any significant changes
Adenosine derivatives
  AMP: 2.04 ± 0.37 nmoles/mg protein
  Inosine: 5.25 ± 0.64 nmoles/mg protein
  Inosine/AMP: 2.71 ± 1.34

## CC(=O)Oc1ccccc1C(=O)O [aspirin]
[1]
  prevention of tactile allodynia (result in words): partial prevention of tactile allodynia

## Vitamin E [VIT E]
[1]
  prevention of tactile allodynia (result in words): partial prevention of tactile allodynia

## CN(C)CC(=O)Nc1ccc2[nH]c(=O)c3ccccc3c2c1 [PJ-34]
[1]
  prevention of tactile allodynia (result in words): partial prevention of tactile allodynia
